Patent US12544428B2, “Controlled-release CNP agonists with reduced side-effects” (ASCENDIS PHARMA GROWTH DISORDERS A/S, priority 2016, dated 2026)

Key:
NPR-B receptor = biological target: T1, NPR-B receptor (Mus musculus, UniProt Q6VVW5); assay: Functional cGMP stimulation in NIH-3T3 cells with CNP variants; assay type: cell-based, murine; conditions: residual NPR-B activity vs non-PEGylated CNP-38, cGMP
T1 construct: These cells express endogenously the NPR-B receptor on the cell surface; endogenous in cells; host or cells: NIH-3T3 (murine embryo fibroblast)
T1 sequence (Q6VVW5 23-1047 limits assumed): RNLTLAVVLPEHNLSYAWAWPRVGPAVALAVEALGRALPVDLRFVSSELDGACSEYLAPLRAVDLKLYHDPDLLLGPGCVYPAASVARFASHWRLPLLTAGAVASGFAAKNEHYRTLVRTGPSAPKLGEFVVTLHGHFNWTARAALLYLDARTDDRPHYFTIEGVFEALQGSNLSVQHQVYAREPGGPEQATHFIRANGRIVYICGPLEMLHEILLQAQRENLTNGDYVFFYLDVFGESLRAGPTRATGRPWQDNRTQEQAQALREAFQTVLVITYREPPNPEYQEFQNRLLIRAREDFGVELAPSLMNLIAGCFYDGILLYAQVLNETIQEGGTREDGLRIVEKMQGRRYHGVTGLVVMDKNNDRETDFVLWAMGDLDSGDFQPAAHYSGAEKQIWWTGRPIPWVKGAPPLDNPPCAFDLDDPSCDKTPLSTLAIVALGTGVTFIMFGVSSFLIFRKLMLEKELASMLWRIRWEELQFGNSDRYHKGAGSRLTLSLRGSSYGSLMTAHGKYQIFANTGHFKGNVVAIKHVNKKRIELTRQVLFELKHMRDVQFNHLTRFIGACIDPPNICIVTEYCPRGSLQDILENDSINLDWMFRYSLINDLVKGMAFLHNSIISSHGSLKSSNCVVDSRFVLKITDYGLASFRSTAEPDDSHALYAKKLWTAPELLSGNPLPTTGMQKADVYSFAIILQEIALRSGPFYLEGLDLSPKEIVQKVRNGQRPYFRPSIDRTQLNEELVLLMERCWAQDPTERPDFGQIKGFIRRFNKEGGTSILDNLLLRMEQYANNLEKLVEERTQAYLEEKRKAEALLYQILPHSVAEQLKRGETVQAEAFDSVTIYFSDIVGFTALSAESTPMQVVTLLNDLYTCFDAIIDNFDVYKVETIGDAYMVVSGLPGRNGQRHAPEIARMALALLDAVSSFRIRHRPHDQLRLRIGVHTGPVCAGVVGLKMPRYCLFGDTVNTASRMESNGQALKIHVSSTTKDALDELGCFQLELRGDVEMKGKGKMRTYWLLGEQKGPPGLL
Procedure: As used herein “EC50” with regard to controlled-release CNP agonist and CNP agonist refers to the concentration of controlled-release CNP agonist and CNP agonist with which a half-maximum cGMP production of NPR-B is elicited. NPR-B activity in the form of its EC50 of the controlled-release CNP agonist, of the released CNP agonist and of CNP-22 is measured by cultivating NIH-3T3 (Murine Embryo Fibroblast cell line) cells which express NPR-B on their cell surface, incubating the cells with the controlled-release CNP agonist, the corresponding released CNP agonist or CNP-22, respectively, and determining the intracellular production of the second messenger cGMP with a standard cGMP assay. In particular the assay is performed as follows: • (1) murine NIH-3T3 cells expressing endogenous NPR-B are cultivated in DMEM F-12 medium with 5% FBS and 5 mM glutamine at 37° C. and 5% CO2; • (2) for each assay 50,000 cells are resuspended in Dulbecco's PBS with IBMX and incubated with either the controlled-release CNP agonist, the corresponding released CNP agonist or CNP-22; each in different concentrations; • (3) after incubating for 30 min at 37° C. and 5% CO2, the cells are lysed and cGMP levels are determined; and • (4) generating an EC50 value from the determined cGMP levels.
Functional activity of CNP variants were determined in a cell-based assay with NIH-3T3 cells (Murine Embryo Fibroblast cell line). These cells express endogenously the NPR-B receptor on the cell surface. Stimulation of the NPR-B receptor with CNP leads to intracellular production of the second messenger cGMP which is detected with a commercially available cGMP assay. NIH-3T3 cells were routinely cultured in DMEM F-12 medium with 5% FBS and 5 mM glutamine at 37° C. and 5% CO2. For each assay, 50,000 cells were resuspended in stimulation buffer (Dulbecco's PBS with IBMX) and incubated with the CNP variants in different concentrations. CNP (dilutions were made in PBS with 0.2% BSA). After incubation of 30 min at 37° C. and 5% CO2, the cells were lyzed and cGMP levels were determined with a commercially available cGMP TR-FRET assay (Cisbio, cGMP kit, Cat. No. 62GM2PEB). PEGylated CNP variants were always characterized in comparison with the non-PEGylated version in the same experiment batch. If possible, evaluation of the residual activity was done via the relative EC50-parameter of the resulting dose-response curve (restricted model with common slope).
11i was incubated under physiological conditions (1 mg CNP-38 eq/mL), as described in Example 20. After 7 d, released CNP-38 was isolated by RP-HPLC and analyzed for bioactivity as described in Example 21.

NPR-C = biological target: T2, NPR-C (Homo sapiens, UniProt P17342); assay: NPR-C affinity assay; assay type: binding; conditions: residual NPR-C affinity, NPR-C expressing Hek293 cells, competition with fluorescein-labelled CNP 27d
T2 construct: expressed in transfected cells; host or cells: Hek293, lentiviral transduction, CMV promoter, puromycin selection
T2 sequence (P17342 27-541): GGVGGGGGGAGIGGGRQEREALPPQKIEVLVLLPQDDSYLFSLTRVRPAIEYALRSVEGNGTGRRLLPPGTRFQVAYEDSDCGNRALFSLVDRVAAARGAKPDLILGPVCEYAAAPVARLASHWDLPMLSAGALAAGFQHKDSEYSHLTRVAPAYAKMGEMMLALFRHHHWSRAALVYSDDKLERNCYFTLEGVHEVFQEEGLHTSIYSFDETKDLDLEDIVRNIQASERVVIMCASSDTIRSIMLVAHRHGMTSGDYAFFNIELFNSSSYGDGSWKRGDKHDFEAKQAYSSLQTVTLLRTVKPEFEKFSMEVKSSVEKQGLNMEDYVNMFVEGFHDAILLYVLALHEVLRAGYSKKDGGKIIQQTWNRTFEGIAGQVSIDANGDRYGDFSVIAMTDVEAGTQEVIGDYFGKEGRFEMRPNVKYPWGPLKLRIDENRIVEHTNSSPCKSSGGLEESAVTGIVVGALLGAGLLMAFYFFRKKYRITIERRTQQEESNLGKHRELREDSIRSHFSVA

Q: With “Permanent Lys26 CNP-38 PEG4×10 kDa Conjugate [Compound 12g]” as the substance, how does the “EC50 compound/EC50 CNP-38” value (NPR-B receptor) read?
A: >>100

Q: What about the “IC50 of PEGylated CNP-38/IC50 CNP-38” value (NPR-C) of the same substance?
A: 143

Q: Which results are given for “Reversible Lys26 CNP-38 PEG2×20 kDa Conjugate [Compound 10f]”?
A: EC50 compound/EC50 CNP-38 (NPR-B receptor): >>100; IC50 of PEGylated CNP-38/IC50 CNP-38 (NPR-C): 12
